# Measured values as given in US20230124969A1, “OPHTHALMIC FORMULATION COMPRISING N-[5-(AMINOSULFONYL)-4-METHYL-1,3- THIAZOL-2-YL]-N-METHYL-2-[4-(2-PYRIDINYL)PHENYL]ACETAMIDE HEMIHYDRATE” (AiCuris GmbH & Co. KG, priority 2020, published 2023).
# Where two headings read alike, the source gives them in different places.
# Experiments:
# Type in all cases: physicochemical
# [1] = Pre-test: PEG 200 stock solutions diluted in GenTeal Tears, visual check for precipitation (Example 1); conditions: stock solution in PEG 200 diluted with GenTeal tears, visual inspection
# Experimental: In order to prepare the new ophthalmic formulation the drug substance concentrations of both i) stock solution and ii) drug product which is administered to the patient need to be determined. For that propose, a stock solution with different concentrations of Pritelivir free base hemihydrate in PEG 200 was diluted in GenTeal® tears and the precipitation was checked over time. All liquids and the DS were equilibrated to ≥ 20° C. Seven 10 mL tubes were provided. In each of these tubes, 5 ml of PEG 200 were added and the required amount of DS was dissolved therein to provide the following stock solutions: 30 mg/mL, 25 mg/mL, 20 mg/mL, 10 mg/mL, 5 mg/mL, 1 mg/mL, 0.05 mg/mL. The solutions were mixed by vortexing the tubes for 5 s and the tubes were shaken until the DS was dissolved. The stock solutions were diluted with GenTeal® tears and the pH value was measured. After that the samples were checked for precipitation by visual inspection.
# [2] = Sterile filtration / filter compatibility: HPLC assay before and after filtration; conditions: for assay data before and after filtration: Example 3, 0.05 mg/mL DS, PEG200 stock diluted in GenTeal tears
# Experimental: • Dilute 500 µL of each sample with 500 µL ACN/MeOH/H2O ratio 25:25:50 + 1% HAc (1:2) • Mix it 5 s by vortexing
# • Dilute 250 µL of each sample with 730 µL ACN/MeOH/H2O ratio 25:25:50 + 1% HAc and add 20 µL ACN/DMSO 4:1 (1:4) • Mix it 5 s by vortexing
# (§1) An amount of 1.5 mL stock solution was diluted with 28.5 mL of the respective artificial tears solution (either GenTeal® Tears or Thera® Tears or Visine® tears) in a beaker and stirred for 2 min with a magnet stirrer. The pH value was determined and samples were taken before and after sterile filtration. The solutions were filtered through CA (cellulose acetate) 0.22 µm filter system. The content of the beaker was withdrawn and respectively 14 mL of the prepared formulation were added to two empty 50 mL tubes. In addition, one empty 2 mL tube was provided and 1.5 mL of the prepared formulation was added to the 2 mL tube. The samples were stored at RT and at a temperature in the range of from 2-8° C. over 5 weeks.
# (§2) The testing was repeated one time to have samples in duplicate (n=2). An amount of 6 mL of the ophthalmic formulation was withdrawn with a 10 mL syringe. An amount of 1 mL was used to determine the final concentration before filtration. The syringe was connected with a PA 0.2 µm filter via Luer Lok and the solution was filtered. Another sample was taken to determine the final concentration after filtration.
# The filter was then disconnected from the syringe and an amount of 3 mL DMSO was withdrawn with the used 10 mL syringe. Then, the syringe was shaken smoothly. An amount of 1 mL was used to determine the final concentration after rinsing. The syringe was again connected to the used PA 0.2 µm filter via Luer Lok the DMSO was filtered. A sample was taken to determine the final concentration after washing.
# This protocol was repeated for all tested filters: PA / Nylon, PALE / Nylon, PTFE, PVDF, CM, CA, RC, PP, PES. Each filter contained a filter material with a pore size of 0.2 µm and of 0.45 µm.
# as §2, with “repeated” for “repeated one time”, “triplicate (n=3).” for “duplicate (n=2).”, “the” for “a PA 0.2 µm”
# The filter was disconnected from the syringe and an amount of 2 mL DMSO was withdrawn with a fresh 10 mL syringe. The syringe was again connected to the used filter via Luer Lok and the DMSO was filtered. […]
# (§3) The amount of hydrochloric acid was added as determined in the pre-testing to adjust the pH to 6.0 and a sample was taken to determine the final concentration before filtration. […]
# [3] = In-use stability of ophthalmic formulations stored at room temperature and 2-8 °C
# Experimental: To study the in-use stability over 5 weeks at room temperature (RT) and at a temperature in the range of from 2° C. - 8° C., stock solutions with a concentration of 1.0 mg/mL of DS were prepared in PEG200 and in PEG400. The different stock solutions were diluted in 3 different compositions of artificial tears to a final concentration of 0.05 mg DS per mL ophthalmic formulation.
# as §1, with “weeks. […]” for “weeks.”
# To study the impact of the pH value on the tendency of the ophthalmic formulation to degrade and precipitate 3 different compositions of artificial tears were adjusted to pH 4.0, 5.0 and 6.0. A stock solution of Pritelivir free base hemihydrate in PEG400 at a concentration of 1.0 mg/mL was prepared. The stock solutions were diluted in the pH adjusted artificial tears at a Pritelivir free base hemihydrate concentration of 0.05 mg/mL and filtered through a RC 0.2 µm sterile filter. It turned out to be preferable to carry out the dilution step for each sample one after the other to keep the time before the filtration step short.
# All samples were prepared as triplicates. One sample was prepared after the other to keep the preparation time short and to minimize the risk of precipitation. The stock solution was diluted with pH adjusted artificial tears solution in a tube and gently mixed. A sample was taken to determine the final concentration. An amount of 20 mL of the tube was withdrawn with a 20 mL syringe. Then, the syringe was connected to the RC […] filter via Luer Lok and the solution was filtered in two portions of 10 mL each into two 50 mL tube. Another sample was taken to determine the final concentration after filtration.
# The samples were stored at room temperature and at a temperature in the range of from 2° C.-8° C. over 4 weeks.
# To determine an acceptable pH value for ophthalmic use, a stock solution of Pritelivir free base hemihydrate in PEG400 was prepared at a concentration 1.0 mg/mL. […]
# as §3
# [4] = Preparation of 1 mg/mL PEG400 stock solution and ophthalmic formulation with different drug substances (experiments 8-10); conditions: for suitability as drug substance for preparation of the ophthalmic formulation: three tested drug substances, experiments 1-10
# Experimental: All liquids and the DS were equilibrated to ≥ 20° C. An amount of 20 ml of PEG 400 was added to a 50 mL tube and 20 mg of DS were dissolved therein. The solution was mixed by vortexing the tube for 5 s and the tube was shaken until the DS was dissolved.
# To study whether Pritelivir free base hemihydrate can be replaced with Pritelivir mesylate, Experiment 8 was repeated with Pritelivir mesylate monohydrate as DS.
# The preparation protocol of Example 8 was followed also for the ophthalmic formulation containing Pritelivir mesylate monohydrate as drug substance.
# To study whether Pritelivir free base hemihydrate can be replaced with Pritelivir maleate, Experiment 8 was repeated with Pritelivir maleate as DS.
Compound,drug load of ophthalmic formulation obtainable without any visually detectable precipitation [1] [mg/mL],assay data before and after filtration ([2]; filter material PFTE 0.2 µm),assay data before and after filtration ([2]; filter material RC 0.2 µm),"assay content before and after filtration ([2]; Example 6, 1 mg/mL PEG400 stock diluted with GenTeal Tears to 0.05 mg/mL, RC 0.2 µm filter, six samples)","impurities on storage ([3]; Example 6, PEG400 stock diluted with GenTeal Tears, 0.05 mg/mL, after 1 week at room temperature)","time over which samples were stable ([3]; Example 6, PEG400 stock diluted with GenTeal Tears, 0.05 mg/mL, stored at 2-8° C.) [week]",stability in most artificial tears solutions ([3]; pH 4.0),"stability for an ophthalmic formulation ([3]; pH between 6.0 and 7.0, formulation contains glycerin, hypromellose and polyethylene glycol 400)",suitability as drug substance for preparation of the ophthalmic formulation [4],"assay level after filtration ([2]; Comparative Example 1, protocol of Example 8, RC 0.2 µm filter)",solubility in PEG400 / preparation of stock solution [4],"precipitation ([4]; Comparative Example 1, protocol of Example 8 (PEG400, Visine Tears, 0.1 M HCl))",solubility in PEG400 / preparation of stock solution ([4]; at a concentration of 1 mg/mL)
"Cc1nc(N(C)C(=O)Cc2ccc(-c3ccccn3)cc2)sc1S(N)(=O)=O [Pritelivir free base hemihydrate, N-[5-(aminosulfonyl)-4-methyl-1,3-thiazol-2-yl]-N-methyl-2-[4-(2-pyridinyl)phenyl]acetamide hemihydrate]",24,identical values,identical values,comparable,increase of impurities,1,not stable,sufficiently stable,suitable,–,–,–,–
"N-[5-(amino-sulfonyl)-4-methyl-1,3-thiazol-2-yl]-N-methyl-2-[4-(2-pyridinyl)phenyl] acetamide mesylate monohydrate [Pritelvir mesylate monohydrate]",–,–,–,–,–,–,–,–,insolubility and precipitation problems,decreased significantly,not soluble,Precipitation was observed,–
"Cc1nc(N(C)C(=O)Cc2ccc(-c3ccccn3)cc2)sc1S(N)(=O)=O.O=C(O)/C=C\C(=O)O [Pritelivir maleate, N-[5-(aminosulfonyl)-4-methyl-1,3-thiazol-2-yl]-N-methyl-2-[4-(2-pyridinyl)phenyl]acetamide maleate]",–,–,–,–,–,–,–,–,insolubility and precipitation problems,–,–,–,not possible
